Tests used:
SEK1 in SW480 cells = assay: SEK1 phosphorylation by Western blot (anti-phospho-SEK1 Thr223); type: cell-based, human; conditions: Compound A 1 μM
Procedure: FIG. 3A: SW480 cells were treated with Compound A (1 μM), collected at the indicated time points, and cell lysates assayed for SEK1 activation by Western blotting with anti-phospho-SEK1 (Thr223) antibody. Fold increase in phosphorylation was measured by densitometry. The experiment was repeated three times with similar results.
To further characterize the signal transduction pathway involved in the above-described JNK1 activation, we tested whether SEK1, the protein kinase immediately upstream of JNK1, was also activated by a SAAND. Activation of SEK1 occurs through phosphorylation of two residues of this protein, Ser219 and Thr223, by the protein kinase MEKK1. SW480 cells were treated with Compound A (1 μM) for various times, up to 6 hours, and extracts were analyzed by Western blot analysis using a phospho-Thr223-specific SEK1 antibody. The treatment with Compound A induced increased phosphorylation of SEK1, within 15-30 minutes, without changing the total cellular level of the endogenous SEK1 protein (see, FIG. 3A). By 1 hour there was a 9-fold induction, and this effect persisted for at least 6 hours (FIG. 3A).

PDE peak B = assay: Competitive binding with cGMP
caspase-3 in SW480 cells = assay: Caspase-3 activity with Ac-DEVD-AFC substrate; type: cell-based, human; conditions: 24 hours, sulindac sulfide 200 μM, exisulind 600 μM, Compound A 1 μM, Compound B 10 μM
Procedure: The cells were lysed and the extracts assayed for caspase-3 activity using Ac-DEVD-AFC as the substrate, in the presence or absence of the caspase-3 inhibitor Ac-DEVD-CHO. Caspase-3 activity was calculated by subtracting the AFC fluorescence (excitation; 400 nm, emission; 505 nm) in the presence of Ac-DEVD-CHO from the AFC fluorescence in the absence of Ac-DEVD-CHO.
Protein extracts were then prepared and caspase-3 activity was measured with Ac-DEVD-AFC as the substrate, in the presence or absence of the caspase-3 inhibitor Ac-DEVD-CHO. […] Similar findings were obtained with HCT116 and HT29 cells (data not shown).

PDE 5 (i.e., peak A) = PDE 5 (i.e., peak A) (Homo sapiens, UniProt O76074); assay: Competitive binding with cGMP; conditions: PDE 5 (peak A)
PARP in SW480 cells = assay: PARP cleavage by Western blot; type: cell-based, human; conditions: SW480 cells, Compound A 1 μM, 2 days
Procedure: SW480 cells were pre-treated with either DMSO (−) or Rp-8-pCPT-cGMPS (2 μM) for 2 hours and then treated with either DMSO (−) or Compound A (1 μM). Both the floating and attached cells were collected after 2 days, and the cell lysates were assayed for PARP cleavage by Western blotting with anti-PARP antibody. Fold increase in PARP cleavage was measured by densitometry of the 85 kD fragment.
Finally, we investigated whether activation of the PKG pathway is required for the induction of apoptosis by SAANDs. SW480 cells were treated with either DMSO or the PKG inhibitor Rp-8-pCPT-cGMPS (2 μM) for 2 hours and then the cells were treated with either DMSO or Compound A (1 μM) for 2 days. Both the floating and attached cells were collected, and the cell lysates were assayed for poly (ADP-ribose) polymerase (PARP) cleavage by Western blotting with an anti-PARP antibody. PARP is a 116 kD nuclear enzyme that converts NAD to nicotinamide and protein-linked ADP-ribose polymers, which are important for DNA repair and genomic maintenance. In cells that are undergoing apoptosis the 116 kD PARP protein is cleaved by caspase-3 into 85 and 25 kD fragments, thus resulting in loss of normal PARP function. This inactivation of PARP apparently prevents depletion of cellular levels of NAD and ATP, which are thought to be required for later events in apoptosis.

[1] = system: JNK1 in SW480 colon cancer cells; assay: JNK1 immunoprecipitation in vitro kinase assay with GST-c-Jun(1-79); type: cell-based, human; conditions: SW480 cells
Procedure: The cells were lysed, JNK1 immunoprecipitated with an anti-JNK1 antibody, and the immunoprecipitate (“IP”) assayed for in vitro kinase activity with GST-c-Jun(1-79) as the substrate. The experiments were repeated three times with similar results. Fold activation was measured using a Phosphor Imager.
FIG. 1B: SW480 cells were treated with Compound A (1 μM) for the indicated time periods and in vitro JNK1 kinase activity was determined as described above.
FIG. 2A SW480 cells were treated with either DMSO (−) or Compound A, 0.1 μM; dbcGMP, 500 μM; YC-1, 50 μM; MY-5445, 50 μM; dipyridamole, 10 μM or dbcAMP, 500 μM for one hour. The cells were lysed, JNK1 immunoprecipitated, and the IP assayed for in vitro kinase activity as described in FIG. 1A.
FIG. 2B SW480 cells were pre-treated with either DMSO, KT5720 (2 μM) or Rp-8-pCPT-cGMPS (2 μM) for 2 hours and then treated with Compound B (0, 1 or 10 μM) for one hour. The cells were lysed and assayed for JNK1 activation in the IP as described above.
These concentrations were chosen since they provided optimal induction of apoptosis. Endogenous JNK1 was immunoprecipitated with anti-JNK1 antibody and in vitro kinase assays were performed with GST-c-Jun(1-79) as the substrate. […]
However, the precise role of PKG in signal transduction pathways is not known. […] As a control, KT5720 was used as a protein kinase A (“PKA”)-specific inhibitor. SW480 cells were treated with either DMSO, KT5720 (2 μM) or Rp-8-pCPT-cGMPS (2 μM) for 2 hours and then treated with either DMSO or Compound B (1 or 10 μM) for one hour. Cell extracts were collected and assayed for JNK1 activation.

MEKK1 in SW480 cells = assay: MEKK1 cleavage and activation (Western blot, autophosphorylation); type: cell-based, human
Procedure: FIG. 3B: SW480 cells were treated with Compound A (1 μM) and collected after either 1 or 2 days and the cell lysates were assayed for MEKK1 cleavage by Western blotting with anti-MEKK1 antibody. Minus (−) indicates DMSO treated control cells.
We then examined the effect of a SAAND on MEKK1, a protein kinase immediately upstream of SEK1. […] Previous studies indicate that MEKK1 is cleaved during activation by caspases (19). […] It is not clear, however, whether cGMP-activated PKG directly activates MEKK1 or whether the cleavage and activation of MEKK1 is an indirect effect of the process of apoptosis.

[2] = target: T1, GST-cGB-PDE5 fusion protein (cGMP binding sites of human PDE5A) (Homo sapiens, UniProt O76074); assay: cGMP binding assay (3H-cGMP competition); conditions: 3H-cGMP 2 μM, 22° C., 1 hour
T1 construct: made in house; host or cells: E. coli BL21 (DE3)

For `COc1cc(/C=C2/C(C)=C(CC(=O)NCc3ccccc3)c3cc(F)ccc32)cc(OC)c1OC` [Compound A, (Z)-5-fluoro-2-methyl-(3,4,5-trimethyl-oxybenzylidene)-3-(N-benzyl)-indenylacetamide], the “persistence of SEK1 phosphorylation” value (SEK1 in SW480 cells) was “at least 6 hours”, the “time to increased phosphorylation of SEK1” value (SEK1 in SW480 cells) was 15 to 30 min and the “induction of SEK1 phosphorylation” value (SEK1 in SW480 cells; by 1 hour) was 9 fold. The “competitive binding with cGMP” value (PDE peak B) was “competitively (with cGMP) binds”, the caspase-3 activation (caspase-3 in SW480 cells) was “led to activation of caspase-3” and the “competitive binding with cGMP” value (PDE 5 (i.e., peak A)) was “competitively (with cGMP) bind”. For the same molecule, the PARP cleavage (PARP in SW480 cells) was “induced PARP cleavage”, the “duration of sustained JNK1 activation” value ([1]; Compound A 1 μM, time course) was “at least 24 hours” and the JNK1 activation ([1]; one hour, sulindac sulfide 50-500 μM, exisulind 100-600 μM, Compound A 0.1-5 μM, Compound B 1-50 μM) was “activated JNK1”. For the same molecule, the “MEKK1 activity (autophosphorylation and phosphorylation of GST-SEK1)” value (MEKK1 in SW480 cells) was “strong and transient activation of MEKK1 activity”, the MEKK1 cleavage (MEKK1 in SW480 cells; Compound A 1 μM, one or two days) was “cleavage of this protein” and the “competition with cGMP for the cGMP binding sites of GST-cGB-PDE5” value [2] was “None of the PDE5 inhibitors showed any competition with cGMP”.

Reference: patent publication US6569638B1, “Method for screening compounds for the treatment of neoplasia” (Cell Pathways, Inc, priority 2000, dated 2003)
